Assays:
[1] = test system: OPM-2 human multiple myeloma cell line; experiment: Cell Viability Assay (OPM-2 10 FBS); format: cell-based; settings: OPM-2 cells, CellTiter-Glo
How it was run: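 ATP-based luminescence (CellTiter-Glo) measured after a 16 h compound treatment of OPM-2 cells seeded at 3000 cells/well in 10% FBS medium. IC50 values derived by 4-parameter logistic fitting of serial dilutions.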

[2] = target: T1, Mcl-1/Bim interaction, recombinant human Mcl-1 (171-327) (Homo sapiens, UniProt Q07820); experiment: Cell free Mcl-1: Bim Affinity Assay (Mcl-1 HTRF); format: binding
T1 construct: made in house
How it was run: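 Compounds were mixed with the protein and a biotinylated Bim peptide spanning human residues 51-76. Plates were left overnight, then TR-FRET signal was measured. A four-parameter sigmoidal model applied to duplicate competition data gave IC50.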

[3] = Homo sapiens, OPM-2, 16 h, 16 h
[4] = TR-FRET, 0.1 nM Mcl-1 (171-327), 0.05 nM biotin-Bim (51-76)
[5] = cell free Mcl-1:Bim TR-FRET, recombinant human Mcl-1 (171-327)
[6] = Homo sapiens, OPM-2, 16 h, 16 h incubation

T1 sequence (Q07820 171-327): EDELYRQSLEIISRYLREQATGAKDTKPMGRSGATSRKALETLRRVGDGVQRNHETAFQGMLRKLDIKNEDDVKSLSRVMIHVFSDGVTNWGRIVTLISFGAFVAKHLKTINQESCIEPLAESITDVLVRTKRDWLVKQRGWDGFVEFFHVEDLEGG

Row | IC50 [1, 3] [µM] | IC50 [2, 4] [µM] | SMILES | IC50 ([1]; 16 h) [µM] | IC50 [2, 5] [µM] | other results
1 | 7.45 | 0.00427 | CCN1[C@H](C)C/C=C/[C@H](O)[C@@H]2CC[C@H]2CN2C[C@@]3(CCCc4cc(Cl)ccc43)COc3ccc(cc32)C(=O)NS1(=O)=O [Example 59, (1S,3′R,6′R,7′S,8′E,11R)-6-chloro-12′-ethyl-7′-hydroxy-11′-methyl-3,4-dihydro-2H,15′H-spiro[naphthalene-1,22′-[20]oxa[13]thia[1,12,14]triazatetracyclo[14.7.2.0^3,6.0^19,24]pentacosa[8,16,18,24]tetraen]-15′-one 13′,13′-dioxide] | – | – | –
2 | – | – | COCCO[C@H]1/C=C/C[C@H](C)[C@H](c2ccccc2)S(=O)(=O)NC(=O)c2ccc3c(c2)N(C[C@@H]2CC[C@H]21)C[C@@]1(CCCc2cc(Cl)ccc21)CO3 (single isomer, unassigned) [Example 671] | 5.65 | 0.0198 | –
3 | 0.751 | 0.00127 | Cc1noc(C)c1CO[C@H]1/C=C/CC[C@@H](C)S(=O)(=O)NC(=O)c2ccc3c(c2)N(C[C@@H]2CC[C@H]21)C[C@@]1(CCCc2cc(Cl)ccc21)CO3 [Example 409, (1S,3′R,6′R,7′S,8′E,12′R)-6-chloro-7′-((3,5-dimethyl-4-isoxazolyl)methoxy)-12′-methyl-3,4-dihydro-2H,15′H-spiro[naphthalene-1,22′-[20]oxa[13]thia[1,14]diazatetracyclo[14.7.2.0^3,6.0^19,24]pentacosa [8,16,18,24]tetraen]-15′-one 13′,13′-dioxide] | – | – | –
4 | – | – | CO[C@H]1/C=C/CC[C@@H](CC(C)(C)OC)S(=O)(=O)NC(=O)c2ccc3c(c2)N(C[C@@H]2CC[C@H]21)C[C@@]1(CCCc2cc(Cl)ccc21)CO3 (single isomer, unassigned) [Example 615] | 0.643 | 0.000696 | –
5 | – | – | CC(C)OC(=O)C[C@@H]1[C@@H](C)C/C=C\[C@H](O)[C@@H]2CC[C@H]2CN2C[C@@]3(CCCc4cc(Cl)ccc43)COc3ccc(cc32)C(=O)NS1(=O)=O [Example 570] | 3.02 | 0.00844 | –
6 | – | 0.0178 | CO[C@@H]1/C=C/[C@@H](C)[C@@H](C)CS(=O)(=O)NC(=O)c2ccc3c(c2)N(C[C@@H]2CC[C@H]21)C[C@@]1(CCCc2cc(Cl)ccc21)CO3 (single isomer, unassigned) [Example 1066] | – | – | IC50 [1, 6]: 15.2 µM
7 | 0.381 | 0.00113 | COCCCO[C@H]1/C=C/C[C@H](C)NS(=O)(=O)NC(=O)c2ccc3c(c2)N(C[C@@H]2CC[C@H]21)C[C@@]1(CCCc2cc(Cl)ccc21)CO3 (single isomer, unassigned) [Example 74] | – | – | –
8 | 0.155 | 0.00063 | C[C@@H]1[C@@H](C)C/C=C/[C@H](OCCN2CC(F)(F)C2)[C@@H]2CC[C@H]2CN2C[C@@]3(CCCc4cc(Cl)ccc43)COc3ccc(cc32)C(=O)NS1(=O)=O [Example 9, (1S,3′R,6′R,7′S,8′E,11′S,12′R)-6-chloro-7′-(2-(3,3-difluoro-1-azetidinyl)ethoxy)-11′,12′-dimethyl-3,4-dihydro-2H,15′H-spiro[naphthalene-1,22′-[20]oxa[13]thia[1,14]diazatetracyclo[14.7.2.0^3,6.0^19,24]pentacosa[8,16,18,24]tetraen]-15′-one 13′,13′-dioxide] | – | – | –
9 | – | – | CC[C@H]1C/C=C/[C@H](O)[C@@H]2CC[C@H]2CN2C[C@@]3(CCCc4cc(Cl)ccc43)COc3ccc(cc32)C(=O)NS(=O)(=O)N1 (single isomer, unassigned) [Example 686] | 0.993 | 0.000597 | –
10 | – | – | COCC1COCCN1CCOC1C=CCC(C)C(C)S(=O)(=O)NC(=O)c2ccc3c(c2)N(CC2CCC21)CC1(CCCc2cc(Cl)ccc21)CO3 (mixture of isomers) [Example 530] | 0.134 | 0.000763 | –
11 | 0.208 | 0.000144 | C[C@@H]1CC/C=C/[C@H](OCc2ncn(C)n2)[C@@H]2CC[C@H]2CN2C[C@@]3(CCCc4cc(Cl)ccc43)COc3ccc(cc32)C(=O)NS1(=O)=O [Example 410, (1S,3′R,6′R,7′S,8′E,12′R)-6-chloro-12′-methyl-7′-((l-methyl-1H-1,2,4-triazol-3-yl)methoxy)-3,4-dihydro-2H,15′H-spiro[naphthalene-1,22′-[20]oxa[13]thia[1,14]diazatetracyclo[14.7.2.0^3,6.0^19,24]pentacosa [8,16,18,24]tetraen]-15′-one 13′,13′-dioxide] | – | – | –
12 | – | 0.000275 | C[C@@H]1/C=C/[C@H](O)[C@@H]2CC[C@H]2CN2C[C@@]3(CCCc4cc(Cl)ccc43)COc3ccc(cc32)C(=O)NS(=O)(=O)[C@H](C)C1 [Example 1015, (1S,3′R,6′R,7′S,8′E,10′S,12′R)-6-chloro-7′-hydroxy-10′,12′-dimethyl-3,4-dihydro-2H,15′H-spiro[naphthalene-1,22′-[20]oxa[13]thia[1,14]diazatetracyclo[14.7.2.0^3,6.0^19,24]pentacosa [8,16,18,24]tetraen]-15′-one 13′,13′-dioxide] | – | – | IC50 [1, 6]: 0.235 µM
13 | 2.52 | 0.000603 | COC1C=CC(CO)CC(C)S(=O)(=O)NC(=O)c2ccc3c(c2)N(CC2CCC21)CC1(CCCc2cc(Cl)ccc21)CO3 (single isomer, unassigned) [Example 128] | – | – | –
14 | – | 0.000616 | CC[C@@H]1CC/C=C/[C@H](OCc2nnn(C)n2)[C@@H]2CC[C@H]2CN2C[C@@]3(CCCc4cc(Cl)ccc43)COc3ccc(cc32)C(=O)NS1(=O)=O [Example 987, (1S,3′R,6′R,7′S,8′E,12′R)-6-chloro-12′-ethyl-7′-((2-methyl-2H-tetrazol-5-yl)methoxy)-3,4-dihydro-2H,15′H-spiro[naphthalene-1,22′-[20]oxa[13]thia[1,14]diazatetracyclo[14.7.2.0^3,6.0^19,24]pentacosa [8,16,18,24]tetraen]-15′-one 13′,13′-dioxide] | – | – | IC50 [1, 6]: 0.393 µM
15 | – | – | CO[C@H]1/C=C/C[C@H](C)[C@@H](CC(F)(F)F)S(=O)(=O)NC(=O)c2ccc3c(c2)N(C[C@@H]2CC[C@H]21)C[C@@]1(CCCc2cc(Cl)ccc21)CO3 (single isomer, unassigned) [Example 689] | 0.836 | 0.00253 | –

Row | SMILES | IC50 [1, 3] [µM] | IC50 [2, 4] [µM] | IC50 ([1]; 16 h) [µM] | IC50 [2, 5] [µM] | other results
16 | COC[C@@H]1C[C@@H](C)CC[C@H](O)[C@@H]2CC[C@H]2CN2C[C@@]3(CCCc4cc(Cl)ccc43)COc3ccc(cc32)C(=O)NS1(=O)=O (single isomer, unassigned) [Example 1037] | – | 0.000831 | – | – | IC50 ([1]; 16 h incubation): 0.744 µM
17 | COCC[C@@H]1[C@@H](C)C/C=C/[C@H](OCCN2CCOCC2)[C@@H]2CC[C@H]2CN2C[C@@]3(CCCc4cc(Cl)ccc43)COc3ccc(cc32)C(=O)NS1(=O)=O (single isomer, unassigned) [Example 398] | – | 0.000233 | 0.0883 | – | –
18 | Cn1cnc(CO[C@H]2/C=C/C[C@H]3CCC[C@@H]3S(=O)(=O)NC(=O)c3ccc4c(c3)N(C[C@@H]3CC[C@H]32)C[C@@]2(CCCc3cc(Cl)ccc32)CO4)n1 (single isomer, unassigned) [Example 329] | – | 0.00259 | 3.48 | – | –
19 | O=C1NS(=O)(=O)[C@H](C2CC2)CC/C=C/[C@H](O)[C@@H]2CC[C@H]2CN2C[C@@]3(CCCc4cc(Cl)ccc43)COc3ccc1cc32 (single isomer, unassigned) [Example 148] | – | 0.000285 | 0.459 | – | –
20 | O=C1NS(=O)(=O)[C@H](CC2CCOCC2)CC/C=C/[C@H](O)[C@@H]2CC[C@H]2CN2C[C@@]3(CCCc4cc(Cl)ccc43)COc3ccc1cc32 (single isomer, unassigned) [Example 187] | – | 0.000248 | 0.426 | – | –

Source: patent US12091425B2 (AMGEN INC., priority 2016, dated 2024)
